Assay results: PubChem BioAssay AID1963965 (Molecular Pharmacology Branch, DTP, NCI, 2024)

Test system: 996289-038-R-J1-PDC spheroid viability
Assay: Anticancer human tumor 996289-038-R-J1-PDC patient-derived colon adenocarcinoma cell line growth inhibition [PI3K]
Conditions: spheroids with HUVEC and MSC; for IC50: curve of first compound; for viability, T/C: stronger effect = lower value; active = viability on the fitted dose curve at most 10% of control; inactive = the rest
In short: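 We assembled tumor spheroids that included a stromal compartment of HUVEC and MSCs, then exposed them to targeted agents alone and together with PI3K pathway inhibitors. Concentration series descended by half-log from clinically achievable Cmax levels. Viability served as the endpoint.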

[1] = second compound 0.0316 µM, first compound 0.0316 µM
[2] = second compound 0.0316 µM, first compound 0.1 µM
[3] = second compound 0.0316 µM, first compound 0.316 µM
[4] = second compound 0.0316 µM, first compound 1 µM
[5] = second compound 0.0316 µM, first compound 3.16 µM
[6] = second compound 0.0316 µM, first compound 10 µM
[7] = second compound 0.1 µM, first compound 0.0316 µM
[8] = second compound 0.1 µM, first compound 0.1 µM
[9] = second compound 0.1 µM, first compound 0.316 µM
[10] = second compound 0.1 µM, first compound 1 µM
[11] = second compound 0.1 µM, first compound 3.16 µM
[12] = second compound 0.1 µM, first compound 10 µM
[13] = second compound 0.316 µM, first compound 0.0316 µM
[14] = second compound 0.316 µM, first compound 0.1 µM
[15] = second compound 0.316 µM, first compound 0.316 µM
[16] = second compound 0.316 µM, first compound 1 µM
[17] = second compound 0.316 µM, first compound 3.16 µM
[18] = second compound 0.316 µM, first compound 10 µM
[19] = second compound 1 µM, first compound 0.0316 µM
[20] = second compound 1 µM, first compound 0.1 µM
[21] = second compound 1 µM, first compound 0.316 µM
[22] = second compound 1 µM, first compound 1 µM
[23] = second compound 1 µM, first compound 3.16 µM
[24] = second compound 1 µM, first compound 10 µM
[25] = second compound 3.16 µM, first compound 0.0316 µM
[26] = second compound 3.16 µM, first compound 0.1 µM
[27] = second compound 3.16 µM, first compound 0.316 µM
[28] = second compound 3.16 µM, first compound 1 µM
[29] = second compound 3.16 µM, first compound 3.16 µM
[30] = second compound 3.16 µM, first compound 10 µM
[31] = second compound 10 µM, first compound 0.0316 µM
[32] = second compound 10 µM, first compound 0.1 µM
[33] = second compound 10 µM, first compound 0.316 µM
[34] = second compound 10 µM, first compound 1 µM
[35] = second compound 10 µM, first compound 3.16 µM
[36] = second compound 10 µM, first compound 10 µM
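Also: spheroids exposed to compounds for seven days before viability read.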
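For viability, T/C in this document: luminescence used as a proxy for viable cell amount; percent viability relative to DMSO vehicle control as 100%.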

C=CC(=O)N1CCN(c2nc(=O)n(-c3c(C)ccnc3C(C)C)c3nc(-c4c(O)cccc4F)c(F)cc23)C(C)C1 (stereo unspecified) + CC(Nc1ncnc2nc[nH]c12)c1cc2cccc(Cl)c2c(=O)n1-c1ccccc1
> 10 µM: IC50 (second compound 0.0316 µM) | IC50 (second compound 0.1 µM) | IC50 (second compound 0.316 µM) | IC50 (second compound 1 µM) | IC50 (second compound 3.16 µM) | IC50 (second compound 10 µM)
inactive: viability, T/C [1] 101% | viability, T/C [2] 97.8% | viability, T/C [3] 91.2% | viability, T/C [4] 100% | viability, T/C [5] 107% | viability, T/C [6] 106% | viability, T/C [7] 113% | viability, T/C [8] 93.1% | viability, T/C [9] 98.1% | viability, T/C [10] 106% | viability, T/C [11] 120% | viability, T/C [12] 97% | viability, T/C [13] 95.1% | viability, T/C [14] 106% | viability, T/C [15] 107% | viability, T/C [16] 107% | viability, T/C [17] 105% | viability, T/C [18] 105% | viability, T/C [19] 93.8% | viability, T/C [20] 88.3% | viability, T/C [21] 101% | viability, T/C [22] 98.6% | viability, T/C [23] 112% | viability, T/C [24] 99.6% | viability, T/C [25] 97.2% | viability, T/C [26] 101% | viability, T/C [27] 88.3% | viability, T/C [28] 101% | viability, T/C [29] 118% | viability, T/C [30] 107% | viability, T/C [31] 103% | viability, T/C [32] 88.4% | viability, T/C [33] 90.7% | viability, T/C [34] 97.9% | viability, T/C [35] 105% | viability, T/C [36] 95.9%

CC(Cn1ccc(-c2ccc(C#N)c(Cl)c2)n1)NC(=O)c1cc(C(C)O)[nH]n1 (stereo unspecified) + CC(Nc1ncnc2nc[nH]c12)c1cc2cccc(Cl)c2c(=O)n1-c1ccccc1
> 10 µM: IC50 (second compound 0.0316 µM) | IC50 (second compound 0.1 µM) | IC50 (second compound 0.316 µM) | IC50 (second compound 1 µM) | IC50 (second compound 3.16 µM) | IC50 (second compound 10 µM)
inactive: viability, T/C [1] 109% | viability, T/C [2] 89.9% | viability, T/C [3] 108% | viability, T/C [4] 110% | viability, T/C [5] 106% | viability, T/C [6] 101% | viability, T/C [7] 95.2% | viability, T/C [8] 97.3% | viability, T/C [9] 102% | viability, T/C [10] 101% | viability, T/C [11] 110% | viability, T/C [12] 91.5% | viability, T/C [13] 105% | viability, T/C [14] 99.2% | viability, T/C [15] 105% | viability, T/C [16] 93.9% | viability, T/C [17] 113% | viability, T/C [18] 91.3% | viability, T/C [19] 95.7% | viability, T/C [20] 96.2% | viability, T/C [21] 97.3% | viability, T/C [22] 99.3% | viability, T/C [23] 102% | viability, T/C [24] 106% | viability, T/C [25] 91.6% | viability, T/C [26] 92.7% | viability, T/C [27] 96.7% | viability, T/C [28] 90.6% | viability, T/C [29] 91.9% | viability, T/C [30] 84.7% | viability, T/C [31] 80.2% | viability, T/C [32] 81.8% | viability, T/C [33] 84.6% | viability, T/C [34] 91.5% | viability, T/C [35] 100% | viability, T/C [36] 89.8%

Cn1nccc1Nc1nccc(-c2ccn(C(CO)c3ccc(Cl)c(F)c3)c(=O)c2)n1 (stereo unspecified) + CC(Nc1ncnc2nc[nH]c12)c1cc2cccc(Cl)c2c(=O)n1-c1ccccc1
7.53 µM: IC50 (second compound 10 µM)
inactive: viability, T/C [1] 86.6% | viability, T/C [2] 97.5% | viability, T/C [3] 95.5% | viability, T/C [4] 90.1% | viability, T/C [5] 84.6% | viability, T/C [6] 61.5% | viability, T/C [7] 108% | viability, T/C [8] 89.4% | viability, T/C [9] 120% | viability, T/C [10] 92.8% | viability, T/C [11] 81.7% | viability, T/C [12] 53.1% | viability, T/C [13] 105% | viability, T/C [14] 90.8% | viability, T/C [15] 105% | viability, T/C [16] 93.3% | viability, T/C [17] 79.6% | viability, T/C [18] 55.6% | viability, T/C [19] 91.7% | viability, T/C [20] 101% | viability, T/C [21] 87.9% | viability, T/C [22] 94.4% | viability, T/C [23] 76.9% | viability, T/C [24] 46.1% | viability, T/C [25] 88.1% | viability, T/C [26] 87.2% | viability, T/C [27] 99.7% | viability, T/C [28] 86.1% | viability, T/C [29] 70.3% | viability, T/C [30] 57.1% | viability, T/C [31] 82.7% | viability, T/C [32] 88.5% | viability, T/C [33] 91.1% | viability, T/C [34] 81.7% | viability, T/C [35] 70.8% | viability, T/C [36] 43.3%
8.64 µM: IC50 (second compound 1 µM)
> 10 µM: IC50 (second compound 0.0316 µM) | IC50 (second compound 0.1 µM) | IC50 (second compound 0.316 µM) | IC50 (second compound 3.16 µM)
